For eleven compounds, MIC and MBC results are on record in ChEMBL document CHEMBL3392983, “Synthesis, antimicrobial activity and molecular docking of novel tetracyclic scaffolds incorporating a flavonoid framework with medium sized oxygen heterocycles” (2015).

As usually defined, the MIC is the lowest concentration found to suppress growth.

Format in all cases: functional
For experiment [1], the system named is Staphylococcus aureus. As to the kind of experiment: Antimicrobial activity against Staphylococcus aureus ATCC 25923 assessed as inhibition of microbial growth incubated for 24 hrs by broth dilution method.
The test system of experiment [2] is Staphylococcus aureus. Briefly: Bactericidal activity against Staphylococcus aureus ATCC 25923 assessed as microbial killing during 18 hrs post sub-culture onto drug-free solid media by broth dilution method. The conditions noted are these: ATCC 25923, 18 h, read-out: MBC99.9. For orientation: Dilution methods test growth across graded concentrations, often in twofold steps.

Experiment [3] concerns Pseudomonas aeruginosa. As to the kind of experiment: Antimicrobial activity against Pseudomonas aeruginosa ATCC 10145 assessed as inhibition of microbial growth incubated for 24 hrs by broth dilution method.
The subject of the next experiment is Candida tropicalis. Briefly: Antimicrobial activity against Candida tropicalis ATCC 750 assessed as inhibition of microbial growth incubated for 72 hrs by broth dilution method. The conditions noted are these: ATCC 750, 72 h.
The subject of a further experiment is Candida albicans. As to the kind of experiment: Antimicrobial activity against Candida albicans ATCC 10231 assessed as inhibition of microbial growth incubated for 72 hrs by broth dilution method. The conditions noted are these: ATCC 10231, 72 h.
Experiment [4] has as its system Bacillus subtilis. As to the kind of experiment: Antimicrobial activity against Bacillus subtilis ATCC 6633 assessed as inhibition of microbial growth incubated for 24 hrs by broth dilution method.
Experiment [5] relates to Escherichia coli. As to the kind of experiment: Bactericidal activity against Escherichia coli ATCC 10536 assessed as microbial killing during 18 hrs post sub-culture onto drug-free solid media by broth dilution method. Conditions: ATCC 10536, 18 h, read-out: MBC99.9.
Experiment [6] deals with Bacillus subtilis. As to the kind of experiment: Bactericidal activity against Bacillus subtilis ATCC 6633 assessed as microbial killing during 18 hrs post sub-culture onto drug-free solid media by broth dilution method. Conditions: ATCC 6633, 18 h, read-out: MBC99.9.
For experiment [7], the system named is Pseudomonas aeruginosa. Briefly: Bactericidal activity against Pseudomonas aeruginosa ATCC 10145 assessed as microbial killing during 18 hrs post sub-culture onto drug-free solid media by broth dilution method. The conditions noted are these: ATCC 10145, 18 h, read-out: MBC99.9.
For another experiment, the system named is Klebsiella pneumoniae. As to the kind of experiment: Antimicrobial activity against Klebsiella pneumoniae ATCC 10031 assessed as inhibition of microbial growth incubated for 24 hrs by broth dilution method.
For experiment [8], the system named is Escherichia coli. As to the kind of experiment: Antimicrobial activity against Escherichia coli ATCC 10536 assessed as inhibition of microbial growth incubated for 24 hrs by broth dilution method.

In brackets after ≈: the same amount, converted by molar mass.

On to `O=c1c2c(oc3ccc(Br)cc13)-c1ccccc1OCCO2`, for which the MIC is 0.027 µM in the experiment on Staphylococcus aureus [1] (ATCC 25923, 24 h); 0.097 µM in the experiment on Pseudomonas aeruginosa [3] (ATCC 10145, 24 h); more than 0.558 µM with Candida tropicalis; more than 0.558 µM with Candida albicans; 0.027 µM in the experiment with Bacillus subtilis [4] (ATCC 6633, 24 h); 0.083 µM in the experiment on Klebsiella pneumoniae (ATCC 10031, 24 h). Besides, the MIC in the experiment on Escherichia coli [8] (ATCC 10536, 24 h) was found to be 0.097 µM. In addition, the MBC is 0.023 µM (≈ 0.00826 µg/mL) in the experiment on Staphylococcus aureus [2], 0.061 µM (≈ 0.0219 µg/mL) with Escherichia coli [5], 0.023 µM (≈ 0.00826 µg/mL) with Bacillus subtilis [6] and 0.061 µM (≈ 0.0219 µg/mL) with Pseudomonas aeruginosa [7].

`O=c1c(O)c(-c2ccccc2O)oc2ccc(Cl)cc12`: the MIC with Staphylococcus aureus [1] (ATCC 25923, 24 h) is 0.19 µM; in the experiment on Pseudomonas aeruginosa [3] (ATCC 10145, 24 h) it was 0.157 µM; with Candida tropicalis, more than 0.694 µM; with Candida albicans it was more than 0.694 µM; with Bacillus subtilis [4] (ATCC 6633, 24 h) it was 0.173 µM; in the experiment on Klebsiella pneumoniae (ATCC 10031, 24 h), 0.138 µM. Also, the MIC in the experiment on Escherichia coli [8] (ATCC 10536, 24 h) was 0.14 µM.

With `O=c1c2c(oc3ccc(F)cc13)-c1ccccc1OCCO2`, the MIC in the experiment with Staphylococcus aureus [1] (ATCC 25923, 24 h) is 0.134 µM; in the experiment with Pseudomonas aeruginosa [3] (ATCC 10145, 24 h) it was 0.1 µM; in the experiment with Candida tropicalis it was more than 0.671 µM; with Candida albicans it was more than 0.671 µM; in the experiment on Bacillus subtilis [4] (ATCC 6633, 24 h), 0.117 µM; with Klebsiella pneumoniae (ATCC 10031, 24 h), 0.117 µM. Also, the MIC with Escherichia coli [8] (ATCC 10536, 24 h) stood at 0.167 µM. In addition, the MBC with Staphylococcus aureus [2] was 0.093 µM (≈ 0.0277 µg/mL); in the experiment with Escherichia coli [5], 0.096 µM (≈ 0.0286 µg/mL); with Bacillus subtilis [6], 0.073 µM (≈ 0.0218 µg/mL); with Pseudomonas aeruginosa [7], 0.033 µM (≈ 0.00984 µg/mL).

With `O=c1c2c(oc3ccc(Br)cc13)-c1ccccc1OCCCCO2`, the MIC was 0.079 µM in the experiment on Staphylococcus aureus [1] (ATCC 25923, 24 h); 0.051 µM in the experiment with Pseudomonas aeruginosa [3] (ATCC 10145, 24 h); more than 0.518 µM in the experiment on Candida tropicalis; more than 0.518 µM with Candida albicans; 0.066 µM with Bacillus subtilis [4] (ATCC 6633, 24 h); 0.09 µM in the experiment with Klebsiella pneumoniae (ATCC 10031, 24 h). The MIC in the experiment on Escherichia coli [8] (ATCC 10536, 24 h) turned out to be 0.038 µM. Further, the MBC with Staphylococcus aureus [2] was found to be 0.024 µM (≈ 0.00929 µg/mL); with Escherichia coli [5], 0.027 µM (≈ 0.0105 µg/mL); with Bacillus subtilis [6] it was 0.053 µM (≈ 0.0205 µg/mL); in the experiment on Pseudomonas aeruginosa [7], 0.024 µM (≈ 0.00929 µg/mL).

Regarding `O=c1c2c(oc3ccc(F)cc13)-c1ccccc1OCCCCCO2`, the MIC with Staphylococcus aureus [1] (ATCC 25923, 24 h) is 0.132 µM; in the experiment with Pseudomonas aeruginosa [3] (ATCC 10145, 24 h), 0.073 µM; with Candida tropicalis, more than 0.588 µM; in the experiment with Candida albicans, more than 0.588 µM; in the experiment on Bacillus subtilis [4] (ATCC 6633, 24 h), 0.117 µM; in the experiment with Klebsiella pneumoniae (ATCC 10031, 24 h) it was 0.088 µM. Besides, the MIC in the experiment on Escherichia coli [8] (ATCC 10536, 24 h) stood at 0.102 µM. Further, the MBC in the experiment with Staphylococcus aureus [2] came to 0.11 µM (≈ 0.0374 µg/mL); in the experiment on Escherichia coli [5], 0.074 µM (≈ 0.0252 µg/mL); with Bacillus subtilis [6] it was 0.039 µM (≈ 0.0133 µg/mL); with Pseudomonas aeruginosa [7], 0.035 µM (≈ 0.0119 µg/mL).

Take `O=c1c2c(oc3ccccc13)-c1ccccc1OCCO2`: the MIC with Staphylococcus aureus [1] (ATCC 25923, 24 h) is 0.142 µM; with Pseudomonas aeruginosa [3] (ATCC 10145, 24 h) it was 0.125 µM; in the experiment with Candida tropicalis, more than 0.714 µM; with Candida albicans, more than 0.714 µM; in the experiment on Bacillus subtilis [4] (ATCC 6633, 24 h), 0.071 µM; with Klebsiella pneumoniae (ATCC 10031, 24 h), 0.107 µM. Also, the MIC in the experiment with Escherichia coli [8] (ATCC 10536, 24 h) came out at 0.108 µM. Moreover, the MBC in the experiment with Staphylococcus aureus [2] is 0.142 µM (≈ 0.0398 µg/mL); in the experiment with Escherichia coli [5] it was 0.085 µM (≈ 0.0238 µg/mL); with Bacillus subtilis [6], 0.071 µM (≈ 0.0199 µg/mL); in the experiment on Pseudomonas aeruginosa [7], 0.071 µM (≈ 0.0199 µg/mL).

Regarding GENTAMICIN SULFATE, the MIC in the experiment with Staphylococcus aureus [1], in the experiment on Pseudomonas aeruginosa [3], with Bacillus subtilis [4], in the experiment with Klebsiella pneumoniae and with Escherichia coli [8] was less than 0.017 µM in each case.

Turning to `O=c1c2c(oc3ccc(Br)cc13)-c1ccccc1OCCCCCO2`, the MIC in the experiment with Staphylococcus aureus [1] (ATCC 25923, 24 h) is 0.051 µM; in the experiment with Pseudomonas aeruginosa [3] (ATCC 10145, 24 h) it was 0.062 µM; in the experiment on Candida tropicalis, more than 0.5 µM; with Candida albicans, more than 0.5 µM; with Bacillus subtilis [4] (ATCC 6633, 24 h) it was 0.063 µM; in the experiment on Klebsiella pneumoniae (ATCC 10031, 24 h), 0.037 µM. Also, the MIC in the experiment with Escherichia coli [8] (ATCC 10536, 24 h) was found to be 0.025 µM. In addition, the MBC in the experiment with Staphylococcus aureus [2] was determined as 0.04 µM (≈ 0.0161 µg/mL); in the experiment with Escherichia coli [5] it was 0.02 µM (≈ 0.00803 µg/mL); in the experiment with Bacillus subtilis [6], 0.035 µM (≈ 0.014 µg/mL); with Pseudomonas aeruginosa [7] it was 0.05 µM (≈ 0.0201 µg/mL).

Consider `OC(Cn1cncn1)(Cn1cncn1)c1ccc(F)cc1F` [FLUCONAZOLE], for which the MIC in the experiment on Candida tropicalis and with Candida albicans was not above 0.033 µM in each case.

On to `O=c1c(O)c(-c2ccccc2O)oc2ccccc12`, for which the MIC was 0.198 µM in the experiment with Staphylococcus aureus [1] (ATCC 25923, 24 h); 0.157 µM in the experiment on Pseudomonas aeruginosa [3] (ATCC 10145, 24 h); more than 0.787 µM in the experiment with Candida tropicalis; more than 0.787 µM with Candida albicans; 0.218 µM in the experiment on Bacillus subtilis [4] (ATCC 6633, 24 h); 0.177 µM in the experiment on Klebsiella pneumoniae (ATCC 10031, 24 h). The MIC in the experiment on Escherichia coli [8] (ATCC 10536, 24 h) worked out at 0.177 µM.

For `O=c1c(O)c(-c2ccccc2O)oc2ccc(F)cc12`, the MIC in the experiment on Staphylococcus aureus [1] (ATCC 25923, 24 h) is 0.259 µM; in the experiment with Pseudomonas aeruginosa [3] (ATCC 10145, 24 h), 0.275 µM; with Candida tropicalis, more than 0.735 µM; with Candida albicans, more than 0.735 µM; with Bacillus subtilis [4] (ATCC 6633, 24 h), 0.167 µM; in the experiment on Klebsiella pneumoniae (ATCC 10031, 24 h) it was 0.202 µM. In the experiment with Escherichia coli [8] (ATCC 10536, 24 h), the MIC came out at 0.22 µM.
